Measured values reported in ChEMBL document CHEMBL3046290, “Metabolic effects of benzylidene thiazolidinedione derivatives in high-fat fed mice” (Med Chem Res, 2012).

What was measured:
Mus musculus [1] = experiment: Toxicity in high-fat fed Mus musculus Swiss albino (mouse) assessed as change in body weight at 30 mg/kg, po qd for 15 days (reference value: 39.9 +/- 1.3 g); format: organism-based; parameters: dose 30 mg/kg, route oral; conditions: in vivo, 360 h
Mus musculus [2] = experiment: Antihyperglycemic activity in high-fat fed Mus musculus Swiss albino (mouse) assessed as reduction of insulin resistance index at 30 mg/kg, po qd for 15 days; format: functional; parameters: scale not given: the % may be the effect or the level left
Mus musculus [3] = experiment: Antihyperglycemic activity in high-fat fed Mus musculus Swiss albino (mouse) assessed as reduction of fasting serum insulin level at 30 mg/kg, po qd for 15 days; format: functional; parameters: scale not given: the % may be the effect or the level left
Mus musculus [4] = experiment: Antihyperglycemic activity in high-fat fed Mus musculus Swiss albino (mouse) assessed as reduction of fasting serum glucose level at 30 mg/kg, po qd for 15 days; format: functional; parameters: scale not given: the % may be the effect or the level left
Mus musculus [5] = experiment: Antihyperlipidemic activity in high-fat fed Mus musculus Swiss albino (mouse) assessed as reduction of serum cholesterol level at 30 mg/kg, po qd for 15 days; format: functional; parameters: scale not given: the % may be the effect or the level left
Mus musculus [6] = experiment: Antihyperlipidemic activity in high-fat fed Mus musculus Swiss albino (mouse) assessed as reduction of serum triglyceride level at 30 mg/kg, po qd for 15 days; format: functional; parameters: scale not given: the % may be the effect or the level left

Row | SMILES | Activity (Mus musculus [1]) | Activity (Mus musculus [2]) | Activity (Mus musculus [3]) | Activity (Mus musculus [4]) | Activity (Mus musculus [5]) | Activity (Mus musculus [6])
1 | Cc1ccc(CN2C(=O)S/C(=C\c3ccc(N(C)C)cc3)C2=O)cc1 | 5.88 g | 73% | 56% | 38% | 22% | 23%
2 | COc1ccc(/C=C2\SC(=O)N(Cc3ccc(C)cc3)C2=O)c(OC)c1 | 6.06 g | 57% | 33% | 36% | 36% | 38%
3 | CN(CCOc1ccc(CC2SC(=O)NC2=O)cc1)c1ccccn1 (stereo not given) [ROSIGLITAZONE] | 5.28 g | 71% | 48% | 44% | 35% | 43%
4 | COc1ccc(/C=C2\SC(=O)N(Cc3ccc(C)cc3)C2=O)cc1 | 5.12 g | 81% | 65% | 46% | 27% | 44%
5 | Cc1ccc(CN2C(=O)S/C(=C\c3ccc(Cl)cc3)C2=O)cc1 | 6.71 g | 49% | 27% | 29% | 40% | 42%
